From PubChem BioAssay (NCI)
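Test compounds were applied to cells in 96-well plates for 48 hours at 5 doses. TGI: total growth inhibition.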

What was measured:
Experiment in all cases: NCI-60 cell line screen, 48 h
DLD-1 colon = tested on: DLD-1 colon
COLO 205 colon = tested on: COLO 205 colon
786-0 renal = tested on: 786-0 renal
RPMI-8226 leukemia = tested on: RPMI-8226 leukemia
HOP-62 NSCLC = tested on: HOP-62 NSCLC
DMS 273 small cell lung = tested on: DMS 273 small cell lung
SK-MEL-28 melanoma = tested on: SK-MEL-28 melanoma
SN12C renal = tested on: SN12C renal
KM20L2 colon = tested on: KM20L2 colon
IGROV1 ovarian = tested on: IGROV1 ovarian
OVCAR-3 ovarian = tested on: OVCAR-3 ovarian
NCI-H460 lung = tested on: NCI-H460 lung
A498 renal = tested on: A498 renal
ACHN renal = tested on: ACHN renal
NCI-H522 lung = tested on: NCI-H522 lung
MALME-3M melanoma = tested on: MALME-3M melanoma
RXF 393 renal = tested on: RXF 393 renal
SF-295 CNS = tested on: SF-295 CNS
SNB-19 CNS = tested on: SNB-19 CNS
M19-MEL melanoma = tested on: M19-MEL melanoma
OVCAR-8 ovarian = tested on: OVCAR-8 ovarian
UO-31 renal = tested on: UO-31 renal
SF-539 CNS = tested on: SF-539 CNS
SW-620 colon = tested on: SW-620 colon
CCRF-CEM leukemia = tested on: CCRF-CEM leukemia
MOLT-4 leukemia = tested on: MOLT-4 leukemia
NCI-H23 lung = tested on: NCI-H23 lung
SK-MEL-2 melanoma = tested on: SK-MEL-2 melanoma
HL-60(TB) leukemia = tested on: HL-60(TB) leukemia
U251 CNS = tested on: U251 CNS
LOX IMVI melanoma = tested on: LOX IMVI melanoma
HT29 colon = tested on: HT29 colon
K-562 leukemia = tested on: K-562 leukemia
HCT-15 colon = tested on: HCT-15 colon
NCI-H226 lung = tested on: NCI-H226 lung
UACC-257 melanoma = tested on: UACC-257 melanoma
KM12 colon = tested on: KM12 colon
SK-OV-3 ovarian = tested on: SK-OV-3 ovarian
OVCAR-5 ovarian = tested on: OVCAR-5 ovarian
HCT-116 colon = tested on: HCT-116 colon
DMS 114 small cell lung = tested on: DMS 114 small cell lung
EKVX NSCLC = tested on: EKVX NSCLC
SK-MEL-5 melanoma = tested on: SK-MEL-5 melanoma
SNB-75 CNS = tested on: SNB-75 CNS
SNB-78 CNS = tested on: SNB-78 CNS
M14 melanoma = tested on: M14 melanoma
HCC-2998 colon = tested on: HCC-2998 colon
UACC-62 melanoma = tested on: UACC-62 melanoma
XF 498 CNS = tested on: XF 498 CNS
CAKI-1 renal = tested on: CAKI-1 renal
SF-268 CNS = tested on: SF-268 CNS
TK-10 renal = tested on: TK-10 renal
A549 NSCLC = tested on: A549 NSCLC
HOP-92 NSCLC = tested on: HOP-92 NSCLC
OVCAR-4 ovarian = tested on: OVCAR-4 ovarian
LXFL 529 NSCLC = tested on: LXFL 529 NSCLC

Structure (SMILES): CC12CC(=O)NN=C1c1ccccc1C2 (centres undefined)
- TGI (DLD-1 colon): > 100 µM
- TGI (COLO 205 colon): > 100 µM
- TGI (786-0 renal): > 100 µM
- TGI (RPMI-8226 leukemia): > 100 µM
- TGI (HOP-62 NSCLC): > 100 µM
- TGI (DMS 273 small cell lung): > 100 µM
- TGI (SK-MEL-28 melanoma): > 100 µM
- TGI (SN12C renal): > 100 µM
- TGI (KM20L2 colon): > 100 µM
- TGI (IGROV1 ovarian): > 100 µM
- TGI (OVCAR-3 ovarian): > 100 µM
- TGI (NCI-H460 lung): > 100 µM
- TGI (A498 renal): > 100 µM
- TGI (ACHN renal): > 100 µM
- TGI (NCI-H522 lung): > 100 µM
- TGI (MALME-3M melanoma): > 100 µM
- TGI (RXF 393 renal): > 100 µM
- TGI (SF-295 CNS): > 100 µM
- TGI (SNB-19 CNS): > 100 µM
- TGI (M19-MEL melanoma): > 100 µM
- TGI (OVCAR-8 ovarian): > 100 µM
- TGI (UO-31 renal): > 100 µM
- TGI (SF-539 CNS): > 100 µM
- TGI (SW-620 colon): > 100 µM
- TGI (CCRF-CEM leukemia): > 100 µM
- TGI (MOLT-4 leukemia): > 100 µM
- TGI (NCI-H23 lung): > 100 µM
- TGI (SK-MEL-2 melanoma): > 100 µM
- TGI (HL-60(TB) leukemia): > 100 µM
- TGI (U251 CNS): > 100 µM
- TGI (LOX IMVI melanoma): > 100 µM
- TGI (HT29 colon): > 100 µM
- TGI (K-562 leukemia): > 100 µM
- TGI (HCT-15 colon): > 100 µM
- TGI (NCI-H226 lung): > 100 µM
- TGI (UACC-257 melanoma): > 100 µM
- TGI (KM12 colon): > 100 µM
- TGI (SK-OV-3 ovarian): > 100 µM
- TGI (OVCAR-5 ovarian): > 100 µM
- TGI (HCT-116 colon): > 100 µM
- TGI (DMS 114 small cell lung): > 100 µM
- TGI (EKVX NSCLC): > 100 µM
- TGI (SK-MEL-5 melanoma): > 100 µM
- TGI (SNB-75 CNS): > 100 µM
- TGI (SNB-78 CNS): > 100 µM
- TGI (M14 melanoma): > 100 µM
- TGI (HCC-2998 colon): > 100 µM
- TGI (UACC-62 melanoma): > 100 µM
- TGI (XF 498 CNS): > 100 µM
- TGI (CAKI-1 renal): > 100 µM
- TGI (SF-268 CNS): > 100 µM
- TGI (TK-10 renal): > 100 µM
- TGI (A549 NSCLC): > 100 µM

Structure (SMILES): CC1=C[C@H]2C[C@@]3(C)O[C@@H]([C@]4(C)CC[C@H]([C@@H](C)C(=O)O)OO4)CC3C(C)(C)[C@H]2CC1 (some centres undefined)
- TGI (DLD-1 colon): 2.47 µM
- TGI (COLO 205 colon): 3.31 µM
- TGI (786-0 renal): 4.99 µM
- TGI (HOP-62 NSCLC): 3.94 µM
- TGI (DMS 273 small cell lung): 1.74 µM
- TGI (SK-MEL-28 melanoma): 2.95 µM
- TGI (SN12C renal): 2.79 µM
- TGI (KM20L2 colon): 3.91 µM
- TGI (OVCAR-3 ovarian): 3.29 µM
- TGI (NCI-H460 lung): 2.74 µM
- TGI (ACHN renal): 3.05 µM
- TGI (NCI-H522 lung): 0.832 µM
- TGI (MALME-3M melanoma): 2.22 µM
- TGI (RXF 393 renal): 2.53 µM
- TGI (HOP-92 NSCLC): 0.273 µM
- TGI (SF-295 CNS): 3.44 µM
- TGI (SNB-19 CNS): 3.28 µM
- TGI (M19-MEL melanoma): 3.3 µM
- TGI (OVCAR-8 ovarian): 3.54 µM
- TGI (UO-31 renal): 2.59 µM
- TGI (SF-539 CNS): 3.57 µM
- TGI (SW-620 colon): 0.856 µM
- TGI (OVCAR-4 ovarian): 2.9 µM
- TGI (NCI-H23 lung): 3.55 µM
- TGI (SK-MEL-2 melanoma): 3.21 µM
- TGI (HL-60(TB) leukemia): 0.306 µM
- TGI (U251 CNS): 3.01 µM
- TGI (LOX IMVI melanoma): 0.296 µM
- TGI (HT29 colon): 1.77 µM
- TGI (LXFL 529 NSCLC): 1.9 µM
- TGI (NCI-H226 lung): 3.82 µM
- TGI (UACC-257 melanoma): 3.17 µM
- TGI (KM12 colon): 1.65 µM
- TGI (OVCAR-5 ovarian): 4.67 µM
- TGI (HCT-116 colon): 3.78 µM
- TGI (DMS 114 small cell lung): 3.32 µM
- TGI (EKVX NSCLC): 3.67 µM
- TGI (SNB-75 CNS): 2.35 µM
- TGI (SNB-78 CNS): 2.78 µM
- TGI (M14 melanoma): 2.96 µM
- TGI (HCC-2998 colon): 2.28 µM
- TGI (XF 498 CNS): 0.234 µM
- TGI (CAKI-1 renal): 2.89 µM
- TGI (SF-268 CNS): 4.2 µM
- TGI (TK-10 renal): 4.28 µM
- TGI (A549 NSCLC): 3.62 µM
